The subject of one test is MiaPaCa-2 cells. The test can be described thus: MiaPaCa-2 Cell proliferation assay in 3D culture (CCK8). The test is classed as cell-based. The following applies: Homo sapiens, MIA PaCa-2, 120 h; 3D spheroid culture, 5 days with compound, CCK8 readout. In outline: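 Cells grown as spheroids (2500/well, ultra-low attachment, 10% FBS) for 24 h, then exposed 5 days to ten 3-fold compound dilutions at 0.1% DMSO. Viability by CCK8/WST-8, 1.5 h at 37 °C, absorbance 450 nm; IC50 from triplicates.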

The next test concerns the target T1, SHP2 (PTPN11/SHP2-FL) (Homo sapiens, UniProt Q06124).
T1 construct: SHP2 (PTPN11/SHP2-FL, RBC produced, no cat #); purchased RBC no cat #
T1 sequence (Q06124 1-593): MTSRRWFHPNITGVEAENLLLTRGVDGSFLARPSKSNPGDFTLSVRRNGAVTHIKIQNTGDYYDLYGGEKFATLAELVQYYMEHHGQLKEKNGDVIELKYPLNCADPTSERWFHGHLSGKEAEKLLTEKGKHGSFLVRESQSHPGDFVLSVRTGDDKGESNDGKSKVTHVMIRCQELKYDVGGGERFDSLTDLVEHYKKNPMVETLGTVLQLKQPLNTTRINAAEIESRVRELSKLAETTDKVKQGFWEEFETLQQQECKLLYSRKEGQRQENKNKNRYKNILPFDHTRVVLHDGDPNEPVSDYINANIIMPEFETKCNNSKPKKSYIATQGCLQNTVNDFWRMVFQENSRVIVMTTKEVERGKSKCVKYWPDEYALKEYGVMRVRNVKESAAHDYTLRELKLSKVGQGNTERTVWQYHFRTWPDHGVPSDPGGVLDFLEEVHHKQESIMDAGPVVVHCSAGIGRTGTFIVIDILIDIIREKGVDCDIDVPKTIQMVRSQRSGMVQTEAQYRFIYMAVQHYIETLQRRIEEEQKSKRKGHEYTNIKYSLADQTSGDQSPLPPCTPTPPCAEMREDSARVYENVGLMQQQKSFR
The test can be described thus: SHP2 biochemical assay (DiFMUP prompt fluorescence). The following applies: 0.5 nM SHP2, 0.35 μM activating peptide, DiFMUP 100 μM; read-out: SHP2 bichemical activity (IC50). The protocol: SHP2 is allosterically activated through binding of bis-tyro syiphorphorylated peptides to its Src Homology 2 (SH2) domains. The latter activation step leads to the release of the auto-inhibitory interface of SHP2, which in turn renders the SHP2 PTP active and available for substrate recognition and reaction catalysis. The catalytic activity of SHP2 was monitored using the surrogate substrate DiFMUP in a prompt fluorescence assay format. Specifically, the phosphatase reactions were performed at room temperature in 384-well black polystyrene plate, flat bottom, low flange, non-binding surface (Corning, Cat #3575) using a final reaction volume of 20 μL and the following assay buffer conditions: 60 mM HEPES, pH 7.2, 75 mM NaCl, 75 mM KCl, 1 mM EDTA, 0.01% Brij-35, 5 mM DTT, and 10% DMSO (final). The inhibition of SHP2 from the tested compounds (final concentrations varying from 0.003-100 μM) was monitored using an assay in which 0.5 nM of SHP2 (PTPN11/SHP2-FL, RBC produced, no cat #) was incubated with 0.35 μM of the peptide H2NLN(pY)IDLDLV(dPEG8)LST(pY)ASINFQK-amide. After 20 minutes of incubation at room temperature, the surrogate substrate DiFMUP (6,8-difluoro-7-hydroxy-4-methylcoumarin, Invitrogen, cat #D6567, 100 μM final concentration) was added to the reaction. The fluorescence signal was monitored using a microplate reader (Envision, Perkin-Elmer) using excitation and emission wavelengths of 355 nm and 460 nm, respectively. The inhibitor dose response curves were analyzed using normalized IC50 regression curve fitting with control based normalization.
The IC50 values of for Compounds disclosed are listed in Table 2, A: ≤10 nM; B: >10 nM and ≤100 nM; C: >100 nM and ≤1 uM; and D: >1 μM.

Bounds are passed on as bounds.

What is called IC50 is the concentration that gives 50% inhibition.

Regarding `CC1(CN)CCN(c2cnc(Sc3cccc(C(=O)NS(C)(=O)=O)c3Cl)cn2)CC1` [Example 26, 3-((5-(4-(aminomethyl)-4-methylpiperidin-1-yl)pyrazin-2-yl)thio)-2-chloro-N-(methylsulfonyl)benzamide], the IC50 was not above 500 nM in the test on MiaPaCa-2 cells and not above 10 nM on SHP2 (PTPN11/SHP2-FL).
The matching figures for `CC1(CN)CCN(c2cnc(Sc3cccc(C(=O)NS(=O)(=O)C4CCCCC4)c3Cl)cn2)CC1` [Example 27, 3-((5-(4-(aminomethyl)-4-methylpiperidin-1-yl)pyrazin-2-yl)thio)-2-chloro-N-(cyclohexylsulfonyl)benzamide]: not above 500 nM and not above 10 nM.
In the same order, the values of `CC1(CN)CCN(c2cnc(Sc3cccc(C(=O)NS(=O)(=O)c4ccncc4)c3Cl)cn2)CC1` [Example 28, 3-((5-(4-(aminomethyl)-4-methylpiperidin-1-yl)pyrazin-2-yl)thio)-2-chloro-N-(pyridin-4-ylsulfonyl)benzamide] are 500 to 5000 nM and not above 10 nM.
In the same order, the values of `CC1(CN)CCN(c2cnc(Sc3cccc(NC(=O)NS(C)(=O)=O)c3Cl)cn2)CC1` [Example 29, N-((3-((5-(4-(aminomethyl)-4-methylpiperidin-1-yl)pyrazin-2-yl)thio)-2-chlorophenyl)carbamoyl)methanesulfonamide] are not above 500 nM and not above 10 nM.
Regarding `CC1(CN)CCN(c2cnc(Sc3cccc(C(=O)NS(=O)(=O)C4CCCC4)c3Cl)cn2)CC1` [Example 30, 3-((5-(4-(aminomethyl)-4-methylpiperidin-1-yl)pyrazin-2-yl)thio)-2-chloro-N-(cyclopentylsulfonyl)benzamide], the IC50 is 500 to 5000 nM with MiaPaCa-2 cells and not above 10 nM on SHP2 (PTPN11/SHP2-FL).
For `Nc1nc(N2CCC3(CC2)COC[C@H]3N)cnc1Sc1cccc(C(=O)NS(=O)(=O)c2ccccc2)c1Cl` [Example 31, (S)-3-((3-amino-5-(4-amino-2-oxa-8-azaspiro[4.5]decan-8-yl)pyrazin-2-yl)thio)-2-chloro-N-(phenylsulfonyl)benzamide], the IC50 is not above 500 nM in the test on MiaPaCa-2 cells and not above 10 nM on SHP2 (PTPN11/SHP2-FL).
On to `CC1(CN)CCN(c2cnc(Sc3cccc(NC(=O)NS(=O)(=O)C4CC4)c3Cl)cn2)CC1` [Example 32, N-((3-((5-(4-(aminomethyl)-4-methylpiperidin-1-yl)pyrazin-2-yl)thio)-2-chlorophenyl)carbamoyl)cyclopropanesulfonamide], for which the IC50 with MiaPaCa-2 cells is not above 500 nM; at SHP2 (PTPN11/SHP2-FL), not above 10 nM.
As for `CC1(N)CCN(c2cnc(Sc3cccc(S(=O)(=O)NC(=O)c4ccccc4)c3Cl)cn2)CC1` [Example 33, N-((3-((5-(4-amino-4-methylpiperidin-1-yl)pyrazin-2-yl)thio)-2-chlorophenyl)sulfonyl)benzamide], the IC50 is not above 500 nM in the test on MiaPaCa-2 cells and 10 to 100 nM on SHP2 (PTPN11/SHP2-FL).
Consider `CC1(CN)CCN(c2cnc(Sc3cccc(C(=O)NS(=O)(=O)c4ccccc4F)c3Cl)c(N)n2)CC1` [Example 34, 3-((3-amino-5-(4-(aminomethyl)-4-methylpiperidin-1-yl)pyrazin-2-yl)thio)-2-chloro-N-((2-fluorophenyl)sulfonyl)benzamide], for which the figures for the IC50 in the test on MiaPaCa-2 cells and at SHP2 (PTPN11/SHP2-FL) were 500 to 5000 nM and not above 10 nM, respectively.
Regarding `CC1(CN)CCN(c2cnc(Sc3cccc(C(=O)NS(=O)(=O)c4ccccn4)c3Cl)c(N)n2)CC1` [Example 35, 3-((3-amino-5-(4-(aminomethyl)-4-methylpiperidin-1-yl)pyrazin-2-yl)thio)-2-chloro-N-(pyridin-2-ylsulfonyl)benzamide], the IC50 was not above 500 nM in the test on MiaPaCa-2 cells and not above 10 nM at SHP2 (PTPN11/SHP2-FL).
In the case of `CC1(CN)CCN(c2cnc(Sc3cccc(C(=O)NS(=O)(=O)C4CC4)c3Cl)c(N)n2)CC1` [Example 36, 3-((3-amino-5-(4-(aminomethyl)-4-methylpiperidin-1-yl)pyrazin-2-yl)thio)-2-chloro-N-(cyclopropylsulfonyl)benzamide], the IC50 in the test with MiaPaCa-2 cells was in the range of 500 to 5000 nM; at SHP2 (PTPN11/SHP2-FL) it was 10 to 100 nM.
In the same order, the values of `CC1(CN)CCN(c2cnc(Sc3cccc(C(=O)NS(C)(=O)=O)c3Cl)c(N)n2)CC1` [Example 37, 3-((3-amino-5-(4-(aminomethyl)-4-methylpiperidin-1-yl)pyrazin-2-yl)thio)-2-chloro-N-(methylsulfonyl)benzamide] are 5000 to 50000 nM and 10 to 100 nM.
On to `CC1(CN)CCN(c2cnc(Sc3cccc(C(=O)NS(=O)(=O)c4cccnc4)c3Cl)c(N)n2)CC1` [Example 38, 3-((3-amino-5-(4-(aminomethyl)-4-methylpiperidin-1-yl)pyrazin-2-yl)thio)-2-chloro-N-(pyridin-3-ylsulfonyl)benzamide], for which the values for the IC50 in the test with MiaPaCa-2 cells and on SHP2 (PTPN11/SHP2-FL) were 500 to 5000 nM and not above 10 nM, respectively.
For `CC1(CN)CCN(c2cnc(Sc3cccc(C(=O)NS(=O)(=O)c4ccncc4)c3Cl)c(N)n2)CC1` [Example 39, 3-((3-amino-5-(4-(aminomethyl)-4-methylpiperidin-1-yl)pyrazin-2-yl)thio)-2-chloro-N-(pyridin-4-ylsulfonyl)benzamide], the IC50 was in the range of 5000 to 50000 nM with MiaPaCa-2 cells and 10 to 100 nM at SHP2 (PTPN11/SHP2-FL).
`CC1(CN)CCN(c2cnc(Sc3cccc(NC(=O)NS(C)(=O)=O)c3Cl)c(N)n2)CC1` [Example 40, N-((3-((3-amino-5-(4-(aminomethyl)-4-methylpiperidin-1-yl)pyrazin-2-yl)thio)-2-chlorophenyl)carbamoyl)methanesulfonamide]: the IC50 in the test on MiaPaCa-2 cells was not above 500 nM; on SHP2 (PTPN11/SHP2-FL), not above 10 nM.
As to `CC1(CN)CCN(c2cnc(Sc3cccc(NC(=O)NS(=O)(=O)c4ccncc4)c3Cl)c(N)n2)CC1` [Example 41, N-((3-((3-amino-5-(4-(aminomethyl)-4-methylpiperidin-1-yl)pyrazin-2-yl)thio)-2-chlorophenyl)carbamoyl)pyridine-4-sulfonamide], the IC50 with MiaPaCa-2 cells is 5000 to 50000 nM; at SHP2 (PTPN11/SHP2-FL), not above 10 nM.
In the same order, the values of `CC1(CN)CCN(c2cnc(Sc3cccc(NC(=O)NS(=O)(=O)C4CCCC4)c3Cl)c(N)n2)CC1` [Example 42, N-((3-((3-amino-5-(4-(aminomethyl)-4-methylpiperidin-1-yl)pyrazin-2-yl)thio)-2-chlorophenyl)carbamoyl)cyclopentanesulfonamide] are not above 500 nM and not above 10 nM.
Consider `CC1(CN)CCN(c2cnc(Sc3cccc(NC(=O)NS(=O)(=O)C4CC4)c3Cl)c(N)n2)CC1` [Example 43, N-((3-((3-amino-5-(4-(aminomethyl)-4-methylpiperidin-1-yl)pyrazin-2-yl)thio)-2-chlorophenyl)carbamoyl)cyclopropanesulfonamide], for which the IC50 with MiaPaCa-2 cells was not above 500 nM; on SHP2 (PTPN11/SHP2-FL), not above 10 nM.

For the origin of these results see patent US20250109118A1, “HETEROCYCLIC COMPOUNDS AS SHP2 INHIBITORS, COMPOSITIONS COMPRISING THE HETEROCYCLIC COMPOUND, AND METHODS OF USE THEREOF” (JS INNOMED HOLDINGS LTD., priority 2021, published 2025).
